{"source": "patent US8410161B2", "about": "“Thioxanthone ring system derivatives” (National Defense Medical Center, priority 2010, dated 2013)", "format_in_all_cases": "cell-based", "key": {"K562": {"system": "K562", "test": "NCI in vitro DTP human cell line screen, K562", "conditions": "Leukemia, 1.00E−5 Molar", "experimental": "(§1) Then, a cell toxicity assay of the cancer lines made by National Cancer Institute will be discussed as follows. The cell toxicity assay is performed by choosing ten compounds (existing certification numbers) from the 59 compounds disclosed in the present invention first."}, "LOX IMVI": {"system": "LOX IMVI", "test": "NCI in vitro DTP human cell line screen, LOX IMVI", "conditions": "Melanoma, 1.00E−5 Molar", "experimental": "as §1"}, "MCF7": {"system": "MCF7", "test": "NCI in vitro DTP human cell line screen, MCF7", "conditions": "Breast Cancer, 1.00E−5 Molar", "experimental": "as §1"}, "U251": {"system": "U251", "test": "NCI in vitro DTP human cell line screen, U251", "conditions": "CNS Cancer, 1.00E−5 Molar", "experimental": "as §1"}, "NCI-H322M": {"system": "NCI-H322M", "test": "NCI in vitro DTP human cell line screen, NCI-H322M", "conditions": "Non-Small Cell Lung Cancer, 1.00E−5 Molar", "experimental": "as §1"}, "SK-MEL-28": {"system": "SK-MEL-28", "test": "NCI in vitro DTP human cell line screen, SK-MEL-28", "conditions": "Melanoma, 1.00E−5 Molar", "experimental": "as §1"}, "ACHN": {"system": "ACHN", "test": "NCI in vitro DTP human cell line screen, ACHN", "conditions": "Renal Cancer, 1.00E−5 Molar", "experimental": "as §1"}, "SNB-19": {"system": "SNB-19", "test": "NCI in vitro DTP human cell line screen, SNB-19", "conditions": "CNS Cancer, 1.00E−5 Molar", "experimental": "as §1"}, "OVCAR-5": {"system": "OVCAR-5", "test": "NCI in vitro DTP human cell line screen, OVCAR-5", "conditions": "Ovarian Cancer, 1.00E−5 Molar", "experimental": "as §1"}, "NCI-H226": {"system": "NCI-H226", "test": "NCI in vitro DTP human cell line screen, NCI-H226", "conditions": "Non-Small Cell Lung Cancer, 1.00E−5 Molar", "experimental": "as §1"}, "NCI/ADR-RES": {"system": "NCI/ADR-RES", "test": "NCI in vitro DTP human cell line screen, NCI/ADR-RES", "conditions": "Ovarian Cancer, 1.00E−5 Molar", "experimental": "as §1"}, "T-47D": {"system": "T-47D", "test": "NCI in vitro DTP human cell line screen, T-47D", "conditions": "Breast Cancer, 1.00E−5 Molar", "experimental": "as §1"}, "UACC-257": {"system": "UACC-257", "test": "NCI in vitro DTP human cell line screen, UACC-257", "conditions": "Melanoma, 1.00E−5 Molar", "experimental": "as §1"}, "HCT-116": {"system": "HCT-116", "test": "NCI in vitro DTP human cell line screen, HCT-116", "conditions": "Colon Cancer, 1.00E−5 Molar", "experimental": "as §1"}, "OVCAR-4": {"system": "OVCAR-4", "test": "NCI in vitro DTP human cell line screen, OVCAR-4", "conditions": "Ovarian Cancer, 1.00E−5 Molar", "experimental": "as §1"}, "SF-268": {"system": "SF-268", "test": "NCI in vitro DTP human cell line screen, SF-268", "conditions": "CNS Cancer, 1.00E−5 Molar", "experimental": "as §1"}, "KM12": {"system": "KM12", "test": "NCI in vitro DTP human cell line screen, KM12", "conditions": "Colon Cancer, 1.00E−5 Molar", "experimental": "as §1"}, "SNB-75": {"system": "SNB-75", "test": "NCI in vitro DTP human cell line screen, SNB-75", "conditions": "CNS Cancer, 1.00E−5 Molar", "experimental": "as §1"}, "MOLT-4": {"system": "MOLT-4", "test": "NCI in vitro DTP human cell line screen, MOLT-4", "conditions": "Leukemia, 1.00E−5 Molar", "experimental": "as §1"}, "[1]": {"test": "MTT assay, HEL299 fibroblast", "conditions": "human", "from_the_text": "Please refer to FIG. 4C, various cell viabilities of the HEL299 cell lines can be obtained through the MTT assay while the compounds No. 1˜30 are used to treat HEL299 cell lines, wherein HEL299 cell lines are fibroblast."}, "SK-MEL-2": {"system": "SK-MEL-2", "test": "NCI in vitro DTP human cell line screen, SK-MEL-2", "conditions": "Melanoma, 1.00E−5 Molar", "experimental": "as §1"}, "SR": {"system": "SR", "test": "NCI in vitro DTP human cell line screen, SR", "conditions": "Leukemia, 1.00E−5 Molar", "experimental": "as §1"}, "HOP-92": {"system": "HOP-92", "test": "NCI in vitro DTP human cell line screen, HOP-92", "conditions": "Non-Small Cell Lung Cancer, 1.00E−5 Molar", "experimental": "as §1"}, "UO-31": {"system": "UO-31", "test": "NCI in vitro DTP human cell line screen, UO-31", "conditions": "Renal Cancer, 1.00E−5 Molar", "experimental": "as §1"}, "MALME-3M": {"system": "MALME-3M", "test": "NCI in vitro DTP human cell line screen, MALME-3M", "conditions": "Melanoma, 1.00E−5 Molar", "experimental": "as §1"}, "SN12C": {"system": "SN12C", "test": "NCI in vitro DTP human cell line screen, SN12C", "conditions": "Renal Cancer, 1.00E−5 Molar", "experimental": "as §1"}, "HCT-15": {"system": "HCT-15", "test": "NCI in vitro DTP human cell line screen, HCT-15", "conditions": "Colon Cancer, 1.00E−5 Molar", "experimental": "as §1"}, "UACC-62": {"system": "UACC-62", "test": "NCI in vitro DTP human cell line screen, UACC-62", "conditions": "Melanoma, 1.00E−5 Molar", "experimental": "as §1"}, "SW-620": {"system": "SW-620", "test": "NCI in vitro DTP human cell line screen, SW-620", "conditions": "Colon Cancer, 1.00E−5 Molar", "experimental": "as §1"}, "A control cell lines": {"system": "A control cell lines", "test": "MTT assay, A control cell lines (lung cancer cell)", "from_the_text": "Please refer to Table 1 and FIGS. 4A-4C. According to a MTT assay (Table 1), various cell viabilities of the A control cell lines can be obtained and illustrated in FIG. 4A while the compounds No. 2˜30 are used to treat A control cell lines, wherein A control cell lines are lung cancer cell."}, "A3 cell lines": {"system": "A3 cell lines", "test": "MTT assay, A3 cell lines (lung cancer stem cell)", "from_the_text": "Please to FIG. 4B, various cell viabilities of the A3 cell lines can be obtained through the MTT assay and illustrated in FIG. 4B while the compounds No. 1˜30 are used to treat A3 cell lines, wherein A3 cell lines are lung cancer stem cell."}}, "data": [{"smiles": "O=c1c2ccccc2sc2c(Cl)c(Sc3ccc(Cl)cc3)ccc12", "note": "[No. 29, 4-Chloro-3-(4-chlorophenylthio)-9H-thioxanthen-9-one]", "values": [{"measurement": "Growth Percent", "setting": "K562", "result": 96.64, "unit": "%"}, {"measurement": "Growth Percent", "setting": "LOX IMVI", "result": 63.24, "unit": "%"}, {"measurement": "Growth Percent", "setting": "MCF7", "result": 83.90, "unit": "%"}, {"measurement": "Growth Percent", "setting": "U251", "result": 47.77, "unit": "%"}, {"measurement": "Growth Percent", "setting": "NCI-H322M", "result": 56.53, "unit": "%"}, {"measurement": "Growth Percent", "setting": "SK-MEL-28", "result": 114.93, "unit": "%"}, {"measurement": "Growth Percent", "setting": "ACHN", "result": 39.55, "unit": "%"}, {"measurement": "Growth Percent", "setting": "SNB-19", "result": 74.97, "unit": "%"}, {"measurement": "Growth Percent", "setting": "OVCAR-5", "result": 107.36, "unit": "%"}, {"measurement": "Growth Percent", "setting": "NCI-H226", "result": 81.05, "unit": "%"}, {"measurement": "Growth Percent", "setting": "NCI/ADR-RES", "result": 81.27, "unit": "%"}, {"measurement": "Growth Percent", "setting": "T-47D", "result": 85.63, "unit": "%"}, {"measurement": "Growth Percent", "setting": "UACC-257", "result": 99.23, "unit": "%"}, {"measurement": "Growth Percent", "setting": "HCT-116", "result": 54.33, "unit": "%"}, {"measurement": "Growth Percent", "setting": "OVCAR-4", "result": 31.58, "unit": "%"}, {"measurement": "Growth Percent", "setting": "SF-268", "result": 81.14, "unit": "%"}, {"measurement": "Growth Percent", "setting": "KM12", "result": 73.79, "unit": "%"}, {"measurement": "Growth Percent", "setting": "SNB-75", "result": 76.16, "unit": "%"}, {"measurement": "Growth Percent", "setting": "MOLT-4", "result": 94.77, "unit": "%"}, {"measurement": "viability", "setting": "[1]", "result": "74.5 ± 9.39", "unit": "%"}, {"measurement": "Growth Percent", "setting": "SK-MEL-2", "result": 105.36, "unit": "%"}, {"measurement": "Growth Percent", "setting": "SR", "result": 51.19, "unit": "%"}, {"measurement": "Growth Percent", "setting": "HOP-92", "result": 49.52, "unit": "%"}, {"measurement": "Growth Percent", "setting": "UO-31", "result": 69.61, "unit": "%"}, {"measurement": "Growth Percent", "setting": "MALME-3M", "result": 76.90, "unit": "%"}, {"measurement": "Growth Percent", "setting": "SN12C", "result": 70.19, "unit": "%"}, {"measurement": "Growth Percent", "setting": "HCT-15", "result": 85.15, "unit": "%"}, {"measurement": "Growth Percent", "setting": "UACC-62", "result": 82.23, "unit": "%"}, {"measurement": "Growth Percent", "setting": "SW-620", "result": 75.00, "unit": "%"}, {"measurement": "cell viabilities of A control cell lines (MTT assay)", "setting": "A control cell lines", "result": "70.1 ± 2.68", "unit": "%"}, {"measurement": "cell viabilities of A3 cell lines (MTT assay)", "setting": "A3 cell lines", "result": "70.3 ± 5.31", "unit": "%"}]}]}
